Results: patent US20240099989A1, “AGENT FOR PREVENTING OR IMPROVING PERIPHERAL NEUROPATHY” (KINKI UNIVERSITY, priority 2021, published 2024)
Where two headings read alike, the source gives them in different places.

System: Peripheral Neuropathy in a Mouse Caused by Vincristine
Type: in vivo, Balb/c mice
Text: (§1) Six to seven-week-old female Balb/c mice were used for the tests. All the mice were acclimated for seven days after arrival. Then, the mice were grouped into the following four groups: a control group, a group receiving vincristine, a group receiving xylitol, and a group receiving vincristine and xylitol (a group receiving vincristine+xylitol). Each group consisted of five mice.
(§2) On Day 8 of acclimation, the mice in the group receiving vincristine and the group receiving vincristine+xylitol were intraperitoneally administered with vincristine at a dose of 0.2 mg/kg. This day was designated as Day 0 of administration. Thereafter, these mice were intraperitoneally administered with vincristine at a daily dose of 0.2 mg/kg on Day 7 and Day 14.
The mice in the group receiving xylitol and the group receiving vincristine+xylitol were orally administered with xylitol at a dose of 5 mg/kg daily from Day 0.
(§3) A cold plate test was performed to examine the effect of xylitol on paresthesia that is caused by a low temperature stimulus. The mice in the four groups described in (7) of the present example (Example 1) were placed on a cold plate set at 10° C., and withdrawal response time (latent time) was measured. It is presumed that a shorter latent time reflects a greater degree of shunning the low temperature stimulus by the cold plate.
as §1, with “tests as with Example 1.” for “tests.”
On Day 8 of acclimation, the mice in the group receiving vincristine and the group receiving vincristine+xylitol were intraperitoneally administered with vincristine at a dose of 0.2 mg/kg. This day was designated as the first day of the administration (Day 0). Thereafter, these mice were intraperitoneally administered with vincristine at the same dose on Day 7 and Day 14 for a total of 3 doses.
The mice in the group receiving 100 mg/kg xylitol were orally administered with xylitol at a dose of 100 mg/kg daily from Day 0. The mice in the group receiving vincristine+100 mg/kg xylitol were orally administered with xylitol at a dose of 100 mg/kg daily from Day 6 of administration.
as §3, with “A” for “A cold plate”, “performed on the mice in the four groups described in (9) of the present example (Example 2)” for “performed”, “respective” for “the four”, “groups” for “groups described in (7) of the present example (Example 1)”
as §1, with “tests as with Example 1.” for “tests.”, “D-threitol,” for “xylitol,”, “D-threitol” for “xylitol”, “vincristine+D-threitol).” for “vincristine+xylitol).”
as §2, with “vincristine+D-threitol” for “vincristine+xylitol”
The mice in the group receiving D-threitol and the group receiving vincristine+D-threitol were orally administered with D-threitol at a dose of 5 mg/kg daily from Day 0.
A cold plate test was performed to examine the effect of D-threitol on paresthesia that is caused by a low temperature stimulus. […]

[1] = 0.2 mg/kg vincristine + 5 mg/kg test substance orally daily from Day 0 (prevention)
[2] = 0.2 mg/kg vincristine + 100 mg/kg orally daily from Day 6, on Day 12, vs group receiving 0.2 mg/kg vincristine

Row | Structure (SMILES) | withdrawal response time (latent time) [1] | withdrawal response time (latent time) [2] | withdrawal response time (latent time) (0.2 mg/kg vincristine + 100 mg/kg orally daily from Day 6 (therapy), time course after Day 6)
1 | OC[C@H](O)[C@H](O)[C@H](O)[C@@H](O)CO [L-talitol] | approximately similar to that of the control group | significantly longer withdrawal response time | –
2 | OC[C@@H](O)[C@H](O)CO [D-threitol] | approximately similar to that of the control group | significantly longer withdrawal response time | significantly longer withdrawal response time
3 | OC[C@@H](O)[C@H](O)[C@@H](O)CO [xylitol] | approximately similar to that of the control group | significantly longer withdrawal response time | –
